# Where “and” joins values, the source holds several entries; their conditions need not be identical. Identical values can stand only once.
# Assays:
# [1] = system: p53 target gene p21 in Calu-6 cells; assay: p21 mRNA level by quantitative RT-PCR, Calu-6; format: cell-based, human
# Description: The three leftmost lanes show twofold serial dilutions of untreated HeLa cell extract. The molecular weight is indicated to the left of each gel. b Schematic representation of the construct used to measure the function of p53. The construct carries a cDNA encoding the firefly luciferase under a promoter having two p53-responsive elements (underlined). […] The level of p21 mRNA is related to the amount of functional p53 protein synthesized in the cell. The results presented in panels b and c are representative of at least two independent experiments., p-values (p) were calculated using Student’s t-test. Source data are provided as a Source Data file.
# Although DAP clearly promoted the synthesis of full-length proteins from UGA-nonsense-mutation-containing mRNAs, it was necessary to ascertain that the readthrough protein was functional. […] The first involved measuring the transcriptional activity of the p53 readthrough protein in Calu-6 cells transfected with an expression vector carrying the cDNA encoding firefly luciferase under the control of a promoter with two p53-responsive elements (Fig. 2b)[33]. Upon DMSO treatment, only basal luciferase activity was detected, reflecting promoter leakage (Fig. 2c). […] The second assay used the p53 target gene p21 (ref. [44]).
# RNA was purified using RNazol (MRC) according to the manufacturer’s instructions. 1/5 of the RNA preparation was used for reverse-transcription (RT) PCR (RT-PCR) using Superscript II (Life Technologies) for 2 h at 42 °C in the presence of random hexamers. The resulting cDNAs were PCR amplified in the presence of dCTP(α^33P) (Perkin Elmer) with the following primers: GAPDH mRNA (sense: 5′-[…]-3′; antisense: 5′-[…]-3′), p53 mRNA (sense: 5′-[…]-3′; antisense: 5′-[…]-3′), p21 mRNA (sense: 5′-[…]-3′; antisense: 5′-[…]-3′). PCR products were quantified with Personal Molecular Imager and QuantityOne quantification software (Bio-Rad).
# [2] = system: firefly luciferase (Fluc) gene with UGA nonsense codon at position 109 in HeLa cells; assay: Firefly luciferase readthrough assay, UGA PTC construct; format: cell-based, human; conditions: for Concentration of maximal efficacy, UGA readthrough (luciferase) / EC50: Fig. 1D; for Concentration of maximal efficacy, UGA readthrough (luciferase): peer review file; for Correction of the UGA nonsense mutation (luciferase activity), in words: Fig. 1c; for EC50: authors' reply in peer review file, removed from final text
# Description: To identify the compounds responsible for this activity, a semi-preparative HPLC fractionation protocol was used. […] (Fig. 1b). DMSO and G418 were used, respectively, as a negative and a positive control.
# The value of each luciferase measurement is presented in the Source Data File. All data shown in c, d are representative of two independent experiments. Source data are provided as a Source Data file.
# HeLa cells were transfected with the FLuc-int-UGA construct using lipofectamine 3000 (Life technologies) according to the manufacturer’s recommendations. […] Steadylite plus luciferase substrate (Perkin Elmer, Waltham, MA, USA) was then added to each well before measuring the visible light from each well for 10 s with a Tristar luminometer (Berthold technologies, Versailles, France). The plate was read twice and the reported values are averages of the two reads.
compound,measurement,setting,value
"Nc1nc(N)c2[nH]cnc2n1 [DAP, 2,6-diaminopurine]","Level of endogenous p21 mRNA, in words",[1],increase significantly
same,Level of p21 mRNA (DMSO = 1),"[1]; 6.25µM, average",1.751
same,Level of p21 mRNA (DMSO = 1),"[1]; 6.25µM, experiment 1",2.112
same,Level of p21 mRNA (DMSO = 1),"[1]; 6.25µM, experiment 2",1.8
same,Level of p21 mRNA (DMSO = 1),"[1]; 25µM, average",2.148
same,Level of p21 mRNA (DMSO = 1),"[1]; 25µM, experiment 1",1.8674
same,Level of p21 mRNA (DMSO = 1),"[1]; 25µM, experiment 2",2.071
same,Level of p21 mRNA (DMSO = 1),"[1]; 25µM, experiment 3",2.507
same,"Luciferase activity, UGA PTC, dose response","[2]; 0.39µM, Exp. 1",1186.95
same,"Luciferase activity, UGA PTC, dose response","[2]; 0.39µM, Exp. 2",737.25
same,"Luciferase activity, UGA PTC, dose response","[2]; 0.39µM, average",962±318 and 962.101
same,"Luciferase activity, UGA PTC, dose response","[2]; 0.78µM, Exp. 1",1503.98
same,"Luciferase activity, UGA PTC, dose response","[2]; 0.78µM, Exp. 2",977.5
same,"Luciferase activity, UGA PTC, dose response","[2]; 0.78µM, average",1241±372 and 1240.74
same,"Luciferase activity, UGA PTC, dose response","[2]; 1.56µM, Exp. 1",2085.73
same,"Luciferase activity, UGA PTC, dose response","[2]; 1.56µM, Exp. 2",1374.25
same,"Luciferase activity, UGA PTC, dose response","[2]; 1.56µM, average",1730±503 and 1729.99
same,"Luciferase activity, UGA PTC, dose response","[2]; 6.25µM, Exp. 1",7245.46
same,"Luciferase activity, UGA PTC, dose response","[2]; 6.25µM, Exp. 2",4897.5
same,"Luciferase activity, UGA PTC, dose response","[2]; 6.25µM, average",6071±1660 and 6071.48
same,"Luciferase activity, UGA PTC, dose response","[2]; 25µM, Exp. 1",48084
same,"Luciferase activity, UGA PTC, dose response","[2]; 25µM, Exp. 2",33252.2
same,"Luciferase activity, UGA PTC, dose response","[2]; 25µM, average",40668±10487 and 40668.1
same,"Luciferase activity, UGA PTC, dose response","[2]; 100µM, Exp. 1",351175
same,"Luciferase activity, UGA PTC, dose response","[2]; 100µM, Exp. 2",246890
same,"Luciferase activity, UGA PTC, dose response","[2]; 100µM, average",299032±73740 and 299033
same,"Luciferase activity, UGA PTC, dose response","[2]; 300µM, Exp. 1",257964
same,"Luciferase activity, UGA PTC, dose response","[2]; 300µM, Exp. 2",190894
same,"Luciferase activity, UGA PTC, dose response","[2]; 300µM, average",224429±47425 and 224429
same,"Luciferase activity, UGA PTC, dose response","[2]; 600µM, Exp. 1",134395
same,"Luciferase activity, UGA PTC, dose response","[2]; 600µM, Exp. 2",97365.8
same,"Luciferase activity, UGA PTC, dose response","[2]; 600µM, average",115880±26184 and 115881
same,"Luciferase activity, UGA PTC","[2]; DAP 3.75µM, average of 2 experiments",20599.75±1015 and 20599.8
same,"Luciferase activity, UGA PTC","[2]; DAP 3.75µM, experiment 1",19882
same,"Luciferase activity, UGA PTC","[2]; DAP 3.75µM, experiment 2",21317.5
same,"Luciferase activity, UGA PTC","[2]; DAP 37.5µM, average of 2 experiments",35939.75±1176 and 35939.8
same,"Luciferase activity, UGA PTC","[2]; DAP 37.5µM, experiment 1",36771
same,"Luciferase activity, UGA PTC","[2]; DAP 37.5µM, experiment 2",35108.5
same,"Concentration of maximal efficacy, UGA readthrough (luciferase)",[2],100 µM
same,"Correction of the UGA nonsense mutation (luciferase activity), in words",[2],exclusive correction of the UGA nonsense mutation
same,EC50,[2]; Homo sapiens,~50 µM
"CN[C@@H]1[C@@H](O)[C@@H](O[C@@H]2[C@@H](O)[C@H](O[C@H]3O[C@H]([C@@H](C)O)[C@@H](O)[C@H](O)[C@H]3N)[C@@H](N)C[C@H]2N)OC[C@]1(C)O [G418, reference compound]",Level of p21 mRNA (DMSO = 1),"[1]; 25µM, average",1.18
same,Level of p21 mRNA (DMSO = 1),"[1]; 25µM, experiment 1",1.069
same,Level of p21 mRNA (DMSO = 1),"[1]; 25µM, experiment 2",1.178
same,Level of p21 mRNA (DMSO = 1),"[1]; 25µM, experiment 3",1.295
same,Level of p21 mRNA (DMSO = 1),"[1]; 600µM, average",1.145
same,Level of p21 mRNA (DMSO = 1),"[1]; 600µM, experiment 1",0.7456
same,Level of p21 mRNA (DMSO = 1),"[1]; 600µM, experiment 2",1.569
same,Level of p21 mRNA (DMSO = 1),"[1]; 600µM, experiment 3",1.121
same,"Luciferase activity, UGA PTC, dose response","[2]; 0.39µM, Exp. 1",701.361
same,"Luciferase activity, UGA PTC, dose response","[2]; 0.39µM, Exp. 2",678.75
same,"Luciferase activity, UGA PTC, dose response","[2]; 0.39µM, average",690±16 and 690.055
same,"Luciferase activity, UGA PTC, dose response","[2]; 0.78µM, Exp. 1",783.19
same,"Luciferase activity, UGA PTC, dose response","[2]; 0.78µM, Exp. 2",761.5
same,"Luciferase activity, UGA PTC, dose response","[2]; 0.78µM, average",772±15 and 772.345
same,"Luciferase activity, UGA PTC, dose response","[2]; 1.56µM, Exp. 1",853.418
same,"Luciferase activity, UGA PTC, dose response","[2]; 1.56µM, Exp. 2",829
same,"Luciferase activity, UGA PTC, dose response","[2]; 1.56µM, average",841±17 and 841.209
same,"Luciferase activity, UGA PTC, dose response","[2]; 6.25µM, Exp. 1",1017.65
same,"Luciferase activity, UGA PTC, dose response","[2]; 6.25µM, Exp. 2",990.5
same,"Luciferase activity, UGA PTC, dose response","[2]; 6.25µM, average",1004±19 and 1004.07
same,"Luciferase activity, UGA PTC, dose response","[2]; 25µM, Exp. 1",1013.6
same,"Luciferase activity, UGA PTC, dose response","[2]; 25µM, Exp. 2",986
same,"Luciferase activity, UGA PTC, dose response","[2]; 25µM, average",1000±19 and 999.799
same,"Luciferase activity, UGA PTC, dose response","[2]; 100µM, Exp. 1",1134.07
same,"Luciferase activity, UGA PTC, dose response","[2]; 100µM, Exp. 2",1106
same,"Luciferase activity, UGA PTC, dose response","[2]; 100µM, average",1120±20 and 1120.03
same,"Luciferase activity, UGA PTC, dose response","[2]; 300µM, Exp. 1",1723.63
same,"Luciferase activity, UGA PTC, dose response","[2]; 300µM, Exp. 2",1679.5
same,Increase in luciferase activity relative to background level,"[2]; 300 µM, UGA",about twice the background level
same,"Luciferase activity, UGA PTC, dose response","[2]; 300µM, average",1702±31 and 1701.56
same,"Luciferase activity, UGA PTC, dose response","[2]; 600µM, Exp. 1",1231.27
same,"Luciferase activity, UGA PTC, dose response","[2]; 600µM, Exp. 2",1202
same,"Luciferase activity, UGA PTC, dose response","[2]; 600µM, average",1217±21 and 1216.63
same,EC50,[2],~100 µM
same,"Concentration of maximal efficacy, UGA readthrough (luciferase)",[2],300 µM
same,"Correction of the UGA nonsense mutation (luciferase activity), in words",[2],corrected the UGA more efficiently than the UAG nonsense mutation
same,"Luciferase activity, UGA PTC","[2]; G418 1mg/ml, average of 2 experiments",8466.25±478 and 8466.25
same,"Luciferase activity, UGA PTC","[2]; G418 1mg/ml, experiment 1",8804.5
same,"Luciferase activity, UGA PTC","[2]; G418 1mg/ml, experiment 2",8128
